Reference: patent US8815857B2 (Boehringer Ingelheim International GmbH, priority 2011, dated 2014)
Values after ≈ are worked out from the molar mass of the structure shown.

How the values were obtained:
[1] = target: T1, Recombinant human soluble guanylate cyclase (sGC), alpha 1 / beta 1 subunits, heme-free (Homo sapiens, UniProt Q02108+Q02153); assay: Molecular assay: cGMP formation by heme-free recombinant sGC (CisBio cGMP detection kit); type: biochemical; details: 300 pM heme-free sGC, 37° C., 60 min, cGMP readout; read-out: EC50 nM, Activity of Compounds in Molecular Assay
T1 construct: histidine tag (C); made in house; host or cells: Sf9 insect cells (baculovirus coinfection)
T1 sequence (Q02108 1-690 partner): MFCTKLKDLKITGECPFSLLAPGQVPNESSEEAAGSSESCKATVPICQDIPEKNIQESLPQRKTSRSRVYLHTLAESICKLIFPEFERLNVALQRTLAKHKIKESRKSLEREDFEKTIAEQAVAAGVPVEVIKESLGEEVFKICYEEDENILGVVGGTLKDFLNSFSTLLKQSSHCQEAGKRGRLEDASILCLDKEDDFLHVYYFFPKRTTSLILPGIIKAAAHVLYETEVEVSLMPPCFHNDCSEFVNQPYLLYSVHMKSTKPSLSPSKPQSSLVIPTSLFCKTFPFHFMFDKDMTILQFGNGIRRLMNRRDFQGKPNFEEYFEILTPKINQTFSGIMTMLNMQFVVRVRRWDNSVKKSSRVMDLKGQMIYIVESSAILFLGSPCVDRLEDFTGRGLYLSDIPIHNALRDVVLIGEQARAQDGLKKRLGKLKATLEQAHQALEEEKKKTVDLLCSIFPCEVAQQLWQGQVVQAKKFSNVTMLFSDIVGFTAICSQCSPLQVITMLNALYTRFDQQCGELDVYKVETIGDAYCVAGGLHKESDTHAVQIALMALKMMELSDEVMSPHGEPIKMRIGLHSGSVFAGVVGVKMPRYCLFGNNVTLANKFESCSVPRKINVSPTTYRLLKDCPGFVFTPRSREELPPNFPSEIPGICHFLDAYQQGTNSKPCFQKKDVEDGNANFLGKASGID
T1 sequence (Q02153 1-619): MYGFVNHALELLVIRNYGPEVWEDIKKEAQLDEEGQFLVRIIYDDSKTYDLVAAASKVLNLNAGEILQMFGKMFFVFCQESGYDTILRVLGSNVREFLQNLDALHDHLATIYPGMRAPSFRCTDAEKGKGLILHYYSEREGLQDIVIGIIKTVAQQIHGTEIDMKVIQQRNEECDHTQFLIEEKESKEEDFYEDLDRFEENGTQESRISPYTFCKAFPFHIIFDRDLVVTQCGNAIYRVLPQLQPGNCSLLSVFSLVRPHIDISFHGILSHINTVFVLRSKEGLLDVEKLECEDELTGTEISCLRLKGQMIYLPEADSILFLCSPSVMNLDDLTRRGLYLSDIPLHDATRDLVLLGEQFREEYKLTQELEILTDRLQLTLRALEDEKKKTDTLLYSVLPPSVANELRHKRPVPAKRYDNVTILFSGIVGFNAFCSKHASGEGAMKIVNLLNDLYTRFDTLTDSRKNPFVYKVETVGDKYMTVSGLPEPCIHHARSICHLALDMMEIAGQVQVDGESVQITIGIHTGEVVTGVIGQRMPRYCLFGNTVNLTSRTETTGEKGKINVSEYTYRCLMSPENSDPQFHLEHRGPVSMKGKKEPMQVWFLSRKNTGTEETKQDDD
Summary of the method: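 cGMP generated over 60 min at 37° C (pH 6.8 MOPS buffer, 50 nM GTP, 1.25 mM IBMX, 1% DMSO) by 300 pM heme-free sGC, expressed in Sf9 and heme-stripped with 0.5% Tween 20. HTRF ratios converted to nM cGMP; EC50 fitted from log concentration.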

[2] = Assessment of solubility: HT solubility in pION buffer, UV spectrophotometry; details: 16-19 h incubation, 1.0% DMSO; for solubility: pION system solution buffer, kinetic from dmso stock
[3] = pH 4.5, pH 4.5, aqueous buffer, Solubility (pH 4.5), pH 4.5 buffer
[4] = pH 7.4, pH 7.4, aqueous buffer, Solubility (pH 7.4), pH 7.4 buffer

Row | SMILES | EC50 [1] | solubility [2, 3] | solubility [2, 4] | Solubility (pH 4.5) ([2]; pH 4.5 buffer)
1 | Cc1ccc(OCc2ccc(C(=O)N3CCCCC3)cc2C)c(-c2csc(N3CCC(C(=O)O)C(C(F)(F)F)C3)n2)c1 (stereo not drawn) [Compound 142] | 160 nM | 2 µg/mL (≈ 3.32 µM) | > 60 µg/mL | 
2 | Cc1cc(CN2CCS(=O)(=O)CC2)ccc1COc1ccc(Cl)cc1-c1csc(N2CCC(C(=O)O)CC2C)n1 (stereo not drawn) [Compound 143] | 38 nM | 0.2 µg/mL (≈ 0.331 µM) | 36 µg/mL (≈ 59.6 µM) | 
3 | Cc1cc(C(=O)N2CCCCC2)ccc1COc1ccc(F)cc1-c1csc(N2CCC(C(=O)O)C(C(F)(F)F)C2)n1 (stereo not drawn) [Compound 145] | 650 nM | 0.25 µg/mL (≈ 0.413 µM) | > 60 µg/mL | 
4 | Cc1cc(CN2CCS(=O)(=O)CC2)ccc1COc1ccc(C#N)cc1-c1csc(N2CC3CCC(C2)C3C(=O)O)n1 (stereo not drawn) [Compound 146] | 2000 nM | 0.75 µg/mL (≈ 1.24 µM) | > 60 µg/mL | 
5 | Cc1cc(CN2CCS(=O)(=O)CC2)ccc1COc1ccc(C#N)cc1-c1csc(N2C3CCC2CC(C(=O)O)C3)n1 (stereo not drawn) [Compound 147] | 1200 nM | 1 µg/mL (≈ 1.65 µM) | > 60 µg/mL | 
6 | Cc1cc(C(=O)N2CCCCC2)ccc1COc1ccc(C#N)cc1-c1csc(N2CCC(C(=O)O)C(C(F)(F)F)C2)n1 (stereo not drawn) [Compound 148] | 4100 nM | 0.3 µg/mL (≈ 0.49 µM) | > 61 µg/mL | 
7 | Cc1cc(C(=O)N2CCCCC2)ccc1COc1ccc(Cl)cc1-c1csc(N2CCC(C(=O)O)C(C(F)(F)F)C2)n1 (stereo not drawn) [Compound 149] | 380 nM |  | > 62 µg/mL | 0.1 μg/mL
8 | Cc1cc(CN2CCS(=O)(=O)CC2)ccc1COc1ccccc1-c1csc(N2CCC(C(=O)O)C(C(F)(F)F)C2)n1 (stereo not drawn) [Compound 150] | 1200 nM | 1.4 µg/mL (≈ 2.24 µM) | > 62 µg/mL | 
9 | Cc1cc(CN2CCS(=O)(=O)CC2)ccc1COc1c(-c2csc(N3CCC(C(=O)O)CC3)n2)cccc1C(F)(F)F [Compound 151] | 9.9 nM | 0.15 µg/mL (≈ 0.24 µM) | > 62 µg/mL | 
10 | Cc1cc(CN2CCS(=O)(=O)CC2)ccc1COc1ccccc1-c1csc(N2CCC(C(=O)O)CC2C(F)(F)F)n1 (stereo not drawn) [Compound 152] | 170 nM | 0.3 µg/mL (≈ 0.481 µM) | > 62 µg/mL | 
11 | Cc1ccc(OCc2ccc(CN3CCS(=O)(=O)CC3)cc2C)c(-c2csc(N3CCC(C(=O)O)CC3C(F)(F)F)n2)c1 (stereo not drawn) [Compound 153] | 43 nM | 0.2 µg/mL (≈ 0.314 µM) | > 63 µg/mL | 
12 | Cc1ccc(OCc2ccc(CN3CCS(=O)(=O)CC3)cc2C)c(-c2csc(N3CCC(C(=O)O)C(C(F)(F)F)C3)n2)c1 (stereo not drawn) [Compound 154] | 530 nM | 0.8 µg/mL (≈ 1.25 µM) | > 63 µg/mL | 
13 | Cc1cc(CN2CCS(=O)(=O)CC2)ccc1COc1ccc(C#N)cc1-c1csc(N2CCC(C(=O)O)C(C(F)(F)F)C2)n1 (stereo not drawn) [Compound 156] | 3100 nM | 0.45 µg/mL (≈ 0.694 µM) | > 64 µg/mL | 
14 | Cc1cc(CN2CCS(=O)(=O)CC2)ccc1COc1ccc(Cl)cc1-c1csc(N2CCC(C(=O)O)C(C(F)(F)F)C2)n1 (stereo not drawn) [Compound 157] | 940 nM | 0.15 µg/mL (≈ 0.228 µM) | > 65 µg/mL | 
15 | Cc1cc(CN2CCOCC2)ccc1COc1ccccc1-c1csc(N2CCC(C(=O)O)CC2)n1 [Compound 166] | 520 nM | > 55 µg/mL | > 55 µg/mL | 
16 | Cc1ccc(OCc2ccc(CN3CCOCC3)cc2C#N)c(-c2csc(N3CCC(C(=O)O)CC3)n2)c1 [Compound 167] | 52 nM | 41 µg/mL (≈ 77 µM) | > 64 µg/mL | 
